# Test results reported in publication PMC10951340, “Two DOT1 enzymes cooperatively mediate efficient ubiquitin-independent histone H3 lysine 76 tri-methylation in kinetoplastids” (Nature Communications, 2024).
# T1: full-length DOT1A (Trypanosoma brucei, UniProt Q581Z0)
# T1 construct: full length (295 residues), Sf9 cells, His6-tag cut with PreScission
# T1 sequence (Q581Z0 1-295): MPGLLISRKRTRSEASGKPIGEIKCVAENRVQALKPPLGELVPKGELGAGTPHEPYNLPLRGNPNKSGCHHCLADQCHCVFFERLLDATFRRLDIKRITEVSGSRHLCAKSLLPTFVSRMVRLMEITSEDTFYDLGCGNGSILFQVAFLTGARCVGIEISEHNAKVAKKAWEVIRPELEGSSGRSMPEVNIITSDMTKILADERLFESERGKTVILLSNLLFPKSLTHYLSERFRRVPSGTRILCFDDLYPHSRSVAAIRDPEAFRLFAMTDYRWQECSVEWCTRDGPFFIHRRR
# T2: DOT1A full-length (Trypanosoma brucei strain Lister 427, UniProt Q581Z0 1-295)
# T2 sequence: T1 sequence (Q581Z0 1-295)
# T3: Δ42-DOT1A (Trypanosoma brucei strain Lister 427, UniProt Q581Z0 43-295)
# T3 sequence: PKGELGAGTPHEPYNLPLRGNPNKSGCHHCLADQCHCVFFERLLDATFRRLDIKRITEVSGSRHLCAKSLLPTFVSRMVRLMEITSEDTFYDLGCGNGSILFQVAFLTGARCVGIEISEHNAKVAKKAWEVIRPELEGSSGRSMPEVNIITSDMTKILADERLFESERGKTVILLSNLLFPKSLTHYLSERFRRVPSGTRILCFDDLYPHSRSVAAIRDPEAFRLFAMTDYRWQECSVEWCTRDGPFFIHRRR
# B1: FAM-dsDNA probe (dsDNA)
# DNA 1: CTACAGTTCGTCAGGATTCC
# DNA 2: CCGGAATCCTGACGAACTGTAG
# Columns and labels:
# [1] = target: T4, Δ42-DOT1A (Trypanosoma brucei, UniProt Q581Z0); test: X-ray crystal structure of the complex ([…] and […] Å); format: binding; set-up: residues 43-295, E. coli, His6-tag cut with PreScission; details: active site; co-crystallised with twofold molar excess
# [2] = target: T1, full-length DOT1A; test: 3H-methyl incorporation into nucleosome; quantitative MS of H3K76; format: biochemical; details: co-substrate T. brucei nucleosome, pH 8.5, 25 °C; labelled compound
# [3] = target: Δ27-DOT1B (Trypanosoma brucei, UniProt Q4GZF2); details: co-substrate T. brucei nucleosome, pH 8.5, 25 °C; labelled compound
# [4] = target: T4, Δ42-DOT1A; details: pH 8.5, on ice, 254 nm 1 h; covalent photo-cross-link; labelled compound
# [5] = target: T2, DOT1A full-length; test: fluorescence polarization; n = 1; FP: 5 nM probe, 100 mM NaCl, 20 mM Tris-HCl pH 7.5, 5% glycerol, 0.5 mM TCEP, 25 °C, 10 min; footprinting at ambient temperature; details: protein: recombinant; tags: His6 cleaved (PreScission); label: 5'-FAM on strand 1; 5' overhang 2 nt (CC) on strand 2
# [6] = target: T3, Δ42-DOT1A; test: fluorescence polarization; not detectable; n = 1; FP: 5 nM probe, 100 mM NaCl, 20 mM Tris-HCl pH 7.5, 5% glycerol, 0.5 mM TCEP, 25 °C, 10 min; footprinting at ambient temperature; details: protein: recombinant; tags: His6 cleaved (PreScission); label: 5'-FAM on strand 1; 5' overhang 2 nt (CC) on strand 2
# [7] = target: DOT1L (1-420) (human, UniProt Q8TEK3 1-420); test: fluorescence polarization; n = 2; FP: 5 nM probe, 100 mM NaCl, 20 mM Tris-HCl pH 7.5, 5% glycerol, 0.5 mM TCEP, 25 °C, 10 min; footprinting at ambient temperature; details: protein: recombinant; tags: His6 cleaved (PreScission); label: 5'-FAM on strand 1; 5' overhang 2 nt (CC) on strand 2
# Sequence of DOT1L (1-420) (Q8TEK3 1-420): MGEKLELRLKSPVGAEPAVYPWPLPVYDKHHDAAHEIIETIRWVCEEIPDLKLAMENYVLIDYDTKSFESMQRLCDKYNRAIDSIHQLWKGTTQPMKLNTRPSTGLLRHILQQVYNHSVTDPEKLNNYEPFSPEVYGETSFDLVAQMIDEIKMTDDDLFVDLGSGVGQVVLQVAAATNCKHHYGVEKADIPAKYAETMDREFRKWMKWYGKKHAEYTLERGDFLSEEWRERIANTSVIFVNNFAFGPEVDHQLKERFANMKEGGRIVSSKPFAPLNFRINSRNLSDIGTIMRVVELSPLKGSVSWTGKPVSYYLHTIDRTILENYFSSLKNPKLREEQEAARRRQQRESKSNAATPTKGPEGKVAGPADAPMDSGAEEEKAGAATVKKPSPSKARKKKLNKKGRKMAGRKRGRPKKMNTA
# Sequence of Δ27-DOT1B (Q4GZF2 entry or part of it, stated change not applied): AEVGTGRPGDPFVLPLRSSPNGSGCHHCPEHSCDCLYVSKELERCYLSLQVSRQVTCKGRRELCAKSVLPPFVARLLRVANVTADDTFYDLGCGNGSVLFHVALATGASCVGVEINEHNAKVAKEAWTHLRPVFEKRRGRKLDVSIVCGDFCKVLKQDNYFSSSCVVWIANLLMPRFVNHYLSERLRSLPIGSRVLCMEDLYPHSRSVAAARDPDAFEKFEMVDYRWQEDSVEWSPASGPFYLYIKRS
molecule,measurement,setting,value
Nc1ncnc2c1ncn2[C@@H]1O[C@H](CSCC[C@H](N)C(=O)O)[C@@H](O)[C@H]1O [AdoHcy],X-ray crystal structure of the complex (2.1 and 1.9 Å),[1],Δ42-DOT1A crystallized in complex with the methyl donor product AdoHcy in two different crystal forms
C[S+](CC[C@H](N)C(=O)O)C[C@H]1O[C@@H](n2cnc3c(N)ncnc32)[C@H](O)[C@@H]1O (stereo partly shown) [AdoMet],3H-methyl incorporation into nucleosome; quantitative MS of H3K76,[2],"Methyltransferase activity of full-length DOT1A, Δ42-DOT1A, and Δ27-DOT1B toward the recombinant T. brucei nucleosome"
same,3H-methyl incorporation into nucleosome; quantitative MS of H3K76,[3],Δ27-DOT1B showed significant methyltransferase activity by measuring tritium incorporation from [methyl-^3H] AdoMet in vitro
same,"UV cross-linking of [methyl-3H]AdoMet, SDS-PAGE fluorography",[4],AdoMet binding analyzed by cross-linking experiments showing Coomassie stain (middle) and fluorography (bottom)
B1,Kd,[5],900 ± 200 nM
same,binding result,[6],no binding
same,Kd,[7],110 ± 20 nM
